Reference: ChEMBL document CHEMBL1201862, “PubChem BioAssay data set” (2004)
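Results reflect a 48-hour exposure of cells in 96-well plates to compound at five concentrations. At the GI50, growth is halved.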 Active and inactive are the calls of the source. Cut-off read from the data, not from the text of the source: active = GI50 up to about 1.1 µM and inactive = higher.

What was measured:
Assay in all cases: inhibition of tumour cell growth, NCI panel, 48 h
LXFL 529 = system: LXFL 529
HL-60 = system: HL-60
ACHN = system: ACHN
A498 = system: A498
UO-31 = system: UO-31
EKVX = system: EKVX
IGROV-1 = system: IGROV-1
LOX IMVI = system: LOX IMVI
CAKI-1 = system: CAKI-1
DMS-114 = system: DMS-114
OVCAR-8 = system: OVCAR-8
HT-29 = system: HT-29
CCRF-CEM = system: CCRF-CEM
K562 = system: K562
SF-539 = system: SF-539
SK-MEL-28 = system: SK-MEL-28
RXF 393 = system: RXF 393
MCF7 = system: MCF7
NCI/ADR-RES = system: NCI/ADR-RES
Hs-578T = system: Hs-578T

Measured: GI50

CCOC(=O)CC(=O)ON(C)C(C)=O
inactive: LXFL 529 > 100 µM | HL-60 > 100 µM | ACHN > 100 µM | A498 > 100 µM | UO-31 > 100 µM | EKVX > 100 µM | IGROV-1 > 100 µM | LOX IMVI > 100 µM | CAKI-1 > 100 µM | DMS-114 > 100 µM | OVCAR-8 > 100 µM | HT-29 > 100 µM | CCRF-CEM > 100 µM | K562 > 100 µM | SF-539 > 100 µM

N#Cc1c2nc3ccccc3nc2n2ccc3ccccc3c12
inactive: LXFL 529 > 100 µM | HL-60 > 100 µM | ACHN > 100 µM | UO-31 > 100 µM | EKVX > 100 µM | IGROV-1 > 100 µM | DMS-114 > 100 µM | OVCAR-8 > 100 µM | HT-29 > 100 µM | CCRF-CEM > 100 µM | K562 > 100 µM | SK-MEL-28 > 100 µM | SF-539 > 100 µM

CCC12CCCN(Cc3ccccc3)C1c1c(n(C)c3ccccc13)C(CO)C2 (stereo not drawn)
inactive: LXFL 529 41 µM | HL-60 43.4 µM | EKVX 71.9 µM | IGROV-1 38.5 µM | LOX IMVI 41.9 µM | CAKI-1 92.7 µM | DMS-114 37.8 µM | OVCAR-8 63.4 µM | HT-29 17.9 µM | CCRF-CEM 83 µM | K562 29.4 µM | SK-MEL-28 61 µM | RXF 393 72.1 µM | SF-539 37.6 µM

c1ccc(C(c2ccccc2)c2cccnc2)cc1
inactive: ACHN > 100 µM | A498 > 100 µM | UO-31 97.9 µM | EKVX 99.5 µM | IGROV-1 > 100 µM | LOX IMVI > 100 µM | CAKI-1 > 100 µM | DMS-114 82 µM | OVCAR-8 99.3 µM | HT-29 > 100 µM | CCRF-CEM > 100 µM | K562 38.3 µM | SK-MEL-28 > 100 µM | SF-539 > 100 µM

CCOC(=O)NC(=O)c1c[nH]c(=O)[nH]c1=O
inactive: LXFL 529 > 100 µM | HL-60 > 100 µM | ACHN > 100 µM | A498 > 100 µM | UO-31 > 100 µM | EKVX > 100 µM | IGROV-1 > 100 µM | LOX IMVI > 100 µM | CAKI-1 > 100 µM | DMS-114 > 100 µM | OVCAR-8 > 100 µM | HT-29 > 100 µM | CCRF-CEM > 100 µM | K562 > 100 µM | SK-MEL-28 > 100 µM | SF-539 > 100 µM

CC(C)N(C(=O)c1cccc(C(=O)N(C(C)C)C(C)C)c1)C(C)C
inactive: LXFL 529 > 100 µM | HL-60 > 100 µM | ACHN > 100 µM | A498 > 100 µM | UO-31 > 100 µM | EKVX > 100 µM | IGROV-1 > 100 µM | LOX IMVI > 100 µM | CAKI-1 > 100 µM | DMS-114 > 100 µM | OVCAR-8 > 100 µM | HT-29 > 100 µM | CCRF-CEM > 100 µM | K562 > 100 µM | SK-MEL-28 > 100 µM | SF-539 > 100 µM

O=[N+]([O-])c1ccc(NC2OCC(O)C(O)C2O)cc1 (stereo not drawn)
inactive: LXFL 529 > 100 µM | ACHN > 100 µM | A498 > 100 µM | UO-31 > 100 µM | EKVX > 100 µM | IGROV-1 > 100 µM | LOX IMVI > 100 µM | CAKI-1 > 100 µM | DMS-114 > 100 µM | OVCAR-8 > 100 µM | HT-29 > 100 µM | CCRF-CEM > 100 µM | K562 > 100 µM | SK-MEL-28 > 100 µM | RXF 393 43 µM | SF-539 > 100 µM

CC(=O)NC1=C(NCc2ccc(Cl)cc2)C(=O)c2ccccc2C1=O
inactive: LXFL 529 6.55 µM | HL-60 1.39 µM | ACHN 1.84 µM | UO-31 5.15 µM | EKVX 7.62 µM | IGROV-1 11.3 µM | LOX IMVI 8.2 µM | OVCAR-8 7.45 µM | HT-29 17.8 µM | CCRF-CEM 8.53 µM | K562 2.46 µM | SK-MEL-28 5.5 µM | RXF 393 4.24 µM | SF-539 4.41 µM

Cc1cccc(NC(=O)c2c(N)[n+]([O-])c3ccccc3[n+]2[O-])c1
inactive: LXFL 529 11 µM | HL-60 8.73 µM | ACHN 16.1 µM | A498 16.1 µM | UO-31 18.4 µM | EKVX 16.9 µM | IGROV-1 5.11 µM | CAKI-1 13.9 µM | OVCAR-8 10.2 µM | HT-29 13.7 µM | CCRF-CEM 4.68 µM | K562 5.68 µM | SK-MEL-28 8.05 µM | RXF 393 4.03 µM | SF-539 5.05 µM

N=C(N)NS(=O)(=O)c1ccc(NCCc2c3ccccc3nc3ccccc23)cc1
inactive: LXFL 529 > 100 µM | HL-60 19.4 µM | ACHN > 100 µM | UO-31 > 100 µM | EKVX > 100 µM | IGROV-1 > 100 µM | LOX IMVI 70.1 µM | CAKI-1 87.1 µM | DMS-114 28.3 µM | OVCAR-8 > 100 µM | HT-29 64.4 µM | CCRF-CEM 94 µM | K562 51.1 µM | SK-MEL-28 > 100 µM | RXF 393 > 100 µM | SF-539 > 100 µM

COc1ccc(C2Oc3cc(OC)c(OC)cc3C2CCl)cc1OC (stereo not drawn)
inactive: LXFL 529 > 100 µM | HL-60 > 100 µM | ACHN > 100 µM | A498 73.5 µM | UO-31 > 100 µM | EKVX > 100 µM | LOX IMVI > 100 µM | CAKI-1 > 100 µM | DMS-114 > 100 µM | OVCAR-8 > 100 µM | CCRF-CEM > 100 µM | K562 > 100 µM | SK-MEL-28 > 100 µM | SF-539 > 100 µM

CNC(=O)OCc1c(CO)nc(SC)n1C
inactive: MCF7 > 100 µM | HL-60 > 100 µM | A498 > 100 µM | UO-31 > 100 µM | EKVX > 100 µM | IGROV-1 > 100 µM | LOX IMVI > 100 µM | CAKI-1 > 100 µM | DMS-114 > 100 µM | OVCAR-8 > 100 µM | HT-29 > 100 µM | CCRF-CEM > 100 µM | K562 > 100 µM | SK-MEL-28 > 100 µM | RXF 393 > 100 µM | SF-539 > 100 µM | NCI/ADR-RES > 100 µM

N#Cc1cccc(/C=N/N/C(N)=N/O)c1
inactive: LXFL 529 39.4 µM | HL-60 15.2 µM | ACHN 31.7 µM | A498 33.3 µM | UO-31 49.1 µM | EKVX 9.18 µM | IGROV-1 24.2 µM | LOX IMVI 21.2 µM | CAKI-1 17.1 µM | OVCAR-8 78.3 µM | HT-29 45.5 µM | CCRF-CEM 57.7 µM | K562 41.2 µM | SK-MEL-28 > 100 µM | RXF 393 57.7 µM | SF-539 > 100 µM

C=CCNC(=S)N/N=C1\C(=O)N(CN2CCOCC2)c2ccc([N+](=O)[O-])cc21
inactive: MCF7 33.3 µM | HL-60 24.6 µM | Hs-578T > 100 µM | ACHN 5.3 µM | A498 7.52 µM | UO-31 6.18 µM | EKVX 15.4 µM | IGROV-1 6.21 µM | LOX IMVI 32.3 µM | CAKI-1 5.19 µM | OVCAR-8 12.7 µM | HT-29 23.2 µM | CCRF-CEM 2.7 µM | K562 18.9 µM | SK-MEL-28 > 100 µM | RXF 393 > 100 µM | SF-539 51.6 µM | NCI/ADR-RES 3.74 µM

CCO/C=N\C1=C(C#N)SC2=N/C(=C\c3ccc(OC)cc3)C(=O)N21
inactive: MCF7 > 100 µM | HL-60 87.1 µM | Hs-578T 33.7 µM | ACHN 94.2 µM | A498 > 100 µM | UO-31 > 100 µM | EKVX 60.1 µM | IGROV-1 96.8 µM | LOX IMVI > 100 µM | CAKI-1 > 100 µM | OVCAR-8 > 100 µM | HT-29 > 100 µM | CCRF-CEM > 100 µM | K562 25.9 µM | SK-MEL-28 > 100 µM | RXF 393 43.5 µM | SF-539 > 100 µM | NCI/ADR-RES > 100 µM

CS[C@]12C(=O)C[C@@]3(C)[C@@H](CC[C@]3(O)C(=O)CO)[C@@H]1CCC1=CC(=O)CC[C@@]12C
inactive: MCF7 > 100 µM | HL-60 35.3 µM | Hs-578T > 100 µM | ACHN > 100 µM | A498 > 100 µM | UO-31 95.5 µM | EKVX > 100 µM | IGROV-1 > 100 µM | LOX IMVI > 100 µM | CAKI-1 > 100 µM | OVCAR-8 > 100 µM | HT-29 88.5 µM | CCRF-CEM 42.8 µM | K562 37.1 µM | SK-MEL-28 > 100 µM | RXF 393 > 100 µM | SF-539 > 100 µM | NCI/ADR-RES > 100 µM

CSc1ccc(NC(=S)NN(C)C)cc1
inactive: MCF7 > 10 µM | HL-60 > 10 µM | Hs-578T > 10 µM | ACHN > 10 µM | A498 > 10 µM | UO-31 > 10 µM | EKVX > 10 µM | IGROV-1 > 10 µM | LOX IMVI > 10 µM | CAKI-1 > 10 µM | OVCAR-8 > 10 µM | HT-29 > 10 µM | CCRF-CEM > 10 µM | K562 > 10 µM | SK-MEL-28 > 10 µM | RXF 393 > 10 µM | SF-539 > 10 µM | NCI/ADR-RES > 10 µM
